Laboratory results published in patent US20130109693A1, “DERIVATIVES OF PYRIDO [3,2-D] PYRIMIDINE, METHODS FOR PREPARATION THEREOF AND THERAPEUTIC USES THEREOF” (UNIVERSITE D'ORLEANS, priority 2010, published 2013).

Experiments:
PC3 = experiment: Cytotoxicity on human cells, PC3 (prostate); type: cell-based; details: PC-3, human cells, exposed 24 h and 48 h, 0.1 to 25 μM
Description: (§1) […] Dosages on Human cells (Huh7, Caco, MDA-MB 231, HCT 116, PC3, NCl, Fibroblast)
(§2) Cytotoxicity: This method is based on an automated imaging analysis. 4.10^3 cells were cultivated on 96-well plates and thus left for 24 hours so that they may bind, be distributed and proliferate.
(§3) These cells were then exposed for 24 h and 48 h to increasing concentrations of the compounds of the invention, from 0.1 to 25 μM in a final volume of 80 μL of culture medium. The cells are then set with a 4% paraformaldehyde solution and the nuclei are colored with Hoechst 3342 and counted according to automated imaging quantification.
(§4) All the cell lines were cultivated in a DMEM or RPMI (Invitrogen) medium. All these media were completed with antibiotics (penicillin-streptomycin)(Lonza) and 10% by volume of foetal calf serum (Invitrogen). The cells were cultivated at 37° C. with 5% of CO2. The treatments with the molecules to be tested were carried out with increasing concentrations. […] The control experiments were also conducted by using suitable dilutions of DMSO (maximum 1% DMSO). Cell viability was determined by measuring the reduction of MTS as described in the article of Ribas J, Boix J. (2004). Cell differentiation caspase inhibition and macromolecular synthesis blockage but not BCL-2 or BCL-XL proteins protect SH-SY5Y cells from apoptosis triggered by two CDK inhibitory drugs. Exp. Cell Res., 295: 9-24.

NCI = experiment: Cytotoxicity on human cells, NCI (lung); type: cell-based; details: exposed 24 h and 48 h, 0.1 to 25 μM
Description: as §1, §2, §3, §4

HCT 116 = experiment: Cytotoxicity on human cells, HCT 116 (colon); type: cell-based; details: exposed 24 h and 48 h, 0.1 to 25 μM
Description: as §1, §2, §3, §4

MDA-MB 231 = experiment: Cytotoxicity on human cells, MDA-MB 231 (breast); type: cell-based; details: MDA-MB-231, human cells, exposed 24 h and 48 h, 0.1 to 25 μM
Description: as §1, §2, §3, §4

fibroblast = experiment: Cytotoxicity on human cells, fibroblast; type: cell-based; details: exposed 24 h and 48 h, 0.1 to 25 μM
Description: as §1, §2, §3, §4

DYRK1A = DYRK1A (Homo sapiens, UniProt Q13627); experiment: DYRK1A kinase inhibition (Woodtide substrate, buffer A); type: biochemical; details: 15 μM ATP, 30° C., recombinant GST fusion; read-out: IC50 Kinases DYRK1A
Description: (§5) The activities for inhibiting protein kinases of the compounds of the invention are tested according to the following general procedure:
(§6) Buffer A: 10 mM MgCl2, 1 mM EGTA, 1 mM DTT, 25 mM Tris-HCl pH 7.5 and 50 μg heparin/mL.
(§7) The kinase activities are dosed in buffers A or C, at 30° C., at a final concentration of ATP of 15 μM. The values of the blanks were subtracted and the activities are expressed as a % of the maximum activity, i.e. in the absence of inhibitors. The controls were carried out with suitable dilutions of DMSO.

Huh7 = experiment: Cytotoxicity on human cells, Huh7 (liver); type: cell-based; details: Huh-7, human cells, exposed 24 h and 48 h, 0.1 to 25 μM
Description: as §1, §2, §3, §4

GSK-3αβ = GSK-3αβ kinase inhibition (GS-1 substrate, buffer A); type: biochemical; details: 15 μM ATP, 30° C., native, pig brain; read-out: IC50 Kinases GSK3
Description: as §5, §6, §7
GSK-3αβ (from pig brain, native) was assayed by using a specific substrate of GSK-3 (GS-1: […]pEDEEE)(Sp represents a phosphorylated serine) (Primot, A., Baratte, B., Gompel, M., Borgne, A., Liabeuf, S., Romette, J. L., Costantini, F. and Meijer, L., 2000. Purification of GSK-3 by affinity chromatography on immobilized axin. Protein Expr. & Purif. 20 (3), 394-404). GS-1 was synthesized by Millegen (Labège, France). Its kinase activity was analyzed in the buffer A, with 1 mg of histone H1/mL, in the presence of 15 μM of [γ-^33P] ATP (3,000 Ci/mmol; 10 mCi/mL) in a final volume of 30 μl. After 30 mins of incubation at 30° C., 25 μl of supernatant aliquots were deposited on 2.5×3 cm pieces of phosphocellulose Whatman P81papier, and after 20 seconds, the filters were washed five times (for at least 5 minutes every time) in a solution of 10 mL of phosphoric acid/liter of water. The wet filters were counted in the presence of 1 mL of ACS scintillator fluid (Amersham).

CDK5 = target: T1, CDK5 (Homo sapiens, UniProt Q00535); experiment: CDK5 kinase inhibition (histone H1, [γ-33P] ATP, buffer C); type: biochemical; details: 15 μM ATP, 30° C., recombinant; read-out: IC50 Kinases CDK5
T1 construct: made in house
T1 sequence (Q00535 whole entry): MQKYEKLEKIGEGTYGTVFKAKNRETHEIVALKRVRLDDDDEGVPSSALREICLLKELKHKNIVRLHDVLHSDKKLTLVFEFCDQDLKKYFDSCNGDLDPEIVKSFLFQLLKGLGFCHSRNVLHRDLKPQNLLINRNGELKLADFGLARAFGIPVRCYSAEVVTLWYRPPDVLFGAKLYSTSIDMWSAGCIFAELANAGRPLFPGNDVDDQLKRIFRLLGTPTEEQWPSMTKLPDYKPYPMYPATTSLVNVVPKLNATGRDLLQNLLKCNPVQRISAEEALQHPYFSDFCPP
T1 sequence (Q15078 99-307 partner limits assumed): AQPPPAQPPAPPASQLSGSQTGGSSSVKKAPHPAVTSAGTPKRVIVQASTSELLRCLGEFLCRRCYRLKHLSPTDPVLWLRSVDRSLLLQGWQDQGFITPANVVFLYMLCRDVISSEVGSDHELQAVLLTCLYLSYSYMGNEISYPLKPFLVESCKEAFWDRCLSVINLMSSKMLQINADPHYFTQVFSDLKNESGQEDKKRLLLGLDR
Description: as §5
Buffer C: 60 mM β-glycerophosphate, 15 mM p-nitrophenyl-phosphate, 25 mM Mops (pH 7.2), 5 mM EGTA, 15 mM MgCl2, 1 mM DTT, 1 mM of sodium vanadate
as §7
CDK5 (humane, recombinant) was prepared as described earlier (Leclerc, S.; Garnier, M.; Hoessel, R.; Marko, D.; Bibb, J. A.; Snyder, G. L.; Greengard, P.; Biernat, J.; Mandelkow, E.-M.; Eisenbrand, G.; Meijer, L. Indirubins inhibit glycogen synthase kinase-3β and CDK5/p25, two kinases involved in abnormal tau phosphorylation in Alzheimer's disease—A property common to most CDK inhibitors? J. Biol. Chem. 2001, 276, 251-260; Bach S, Knockaert M, Reinhardt J, Lozach O, Schmitt S, Baratte B et al. (2005). Roscovitine targets, protein kinases and pyridoxal kinase. J. Biol Chem 280: 31208-31219). Its kinase activity was analyzed in the buffer C, with 1 mg of histone H1/mL, in the presence of 15 μM of [γ-^33P] ATP (3,000 Ci/mmol; 10 mCi/mL) in a final volume of 30 μl. After 30 mins of incubation at 30° C., 25 μl of supernatant aliquots were deposited on 2.5×3 cm pieces of phosphocellulose Whatman P81 paper, and after 20 seconds, the filters were washed five times (for at least 5 minutes every time) in a solution of 10 mL phosphoric acid/liter of water. The wet filters were counted in the presence of 1 mL of ACS scintillator fluid (Amersham).

Caco = experiment: Cytotoxicity on human cells, Caco (colon); type: cell-based; details: exposed 24 h and 48 h, 0.1 to 25 μM
Description: as §1, §2, §3, §4

Oc1ccc(-c2ncc3ncc(-c4ccccc4O)cc3n2)cc1 [Compound 24, 2-(4-Hydroxyphenyl)-7-(2-hydroxyphenyl)-pyrido[3,2-d]pyrimidine]
IC50 (PC3): 20 µM | IC50 (NCI): > 25 µM | IC50 (HCT 116): 20 µM | IC50 (MDA-MB 231): > 25 µM | IC50 (fibroblast): > 25 µM | IC50 (DYRK1A): 2.7 µM | melting point: 278 to 279 °C | IC50 (Huh7): 25 µM | IC50 (GSK-3αβ): ≥ 100 µM | IC50 (CDK5): 0.09 µM | IC50 (Caco): 20 µM

Oc1ccc(-c2ncc3ncc(-c4ccc(C(F)(F)F)cc4)cc3n2)cc1 [Compound 25, 2-(4-Hydroxyphenyl)-7-(4-trifluoromethylphenyl)-pyrido[3,2-d]pyrimidine]
IC50 (PC3): > 25 µM | IC50 (NCI): 20 µM | IC50 (HCT 116): > 25 µM | IC50 (MDA-MB 231): > 25 µM | IC50 (fibroblast): > 25 µM | IC50 (DYRK1A): 24 µM | melting point: 203 to 204 °C | IC50 (Huh7): 25 µM | IC50 (GSK-3αβ): ≥ 100 µM | IC50 (CDK5): 0.97 µM | IC50 (Caco): > 25 µM

CS(=O)(=O)c1ccc(-c2cnc3cnc(-c4ccc(O)cc4)nc3c2)cc1 [Compound 26, 2-(4-Hydroxyphenyl)-7-(4-methanesulfonylphenyl)-pyrido[3,2-d]pyrimidine]
IC50 (PC3): > 25 µM | IC50 (NCI): > 25 µM | IC50 (HCT 116): > 25 µM | IC50 (MDA-MB 231): > 25 µM | IC50 (fibroblast): > 25 µM | IC50 (DYRK1A): > 10 µM | melting point: 306 to 307 °C | IC50 (Huh7): > 25 µM | IC50 (GSK-3αβ): > 100 µM | IC50 (CDK5): 0.48 µM | IC50 (Caco): > 25 µM

COc1ccc(-c2cnc3cnc(-c4ccc(O)cc4)nc3c2)cn1 [Compound 32, 2-(4-Hydroxyphenyl)-7-(3-(6-methoxy)-pyridinyl)-pyrido[3,2-d]pyrimidine]
IC50 (PC3): > 25 µM | IC50 (NCI): 25 µM | IC50 (HCT 116): > 25 µM | IC50 (MDA-MB 231): 25 µM | IC50 (fibroblast): 10 µM | IC50 (DYRK1A): > 10 µM | melting point: 246 to 248 °C | IC50 (Huh7): > 25 µM | IC50 (GSK-3αβ): > 10 µM | IC50 (CDK5): 1.2 µM | IC50 (Caco): > 25 µM

Oc1ccc(-c2ncc3ncc(-c4cccnc4)cc3n2)cc1 [Compound 33, 2-(4-Hydroxyphenyl)-7-(3-pyridinyl)-pyrido[3,2-d]pyrimidine]
IC50 (PC3): > 25 µM | IC50 (NCI): > 25 µM | IC50 (HCT 116): > 25 µM | IC50 (MDA-MB 231): > 25 µM | IC50 (fibroblast): > 25 µM | IC50 (DYRK1A): > 10 µM | melting point: > 268 °C | IC50 (Huh7): > 25 µM | IC50 (GSK-3αβ): > 10 µM | IC50 (CDK5): 0.65 µM | IC50 (Caco): > 25 µM

Oc1ccc(-c2ncc3ncc(-c4ccncc4)cc3n2)cc1 [Compound 34, 2-(4-Hydroxyphenyl)-7-(4-pyridinyl)-pyrido[3,2-d]pyrimidine]
IC50 (PC3): > 25 µM | IC50 (NCI): 5 µM | IC50 (HCT 116): 10 µM | IC50 (MDA-MB 231): > 25 µM | IC50 (fibroblast): 15 µM | IC50 (DYRK1A): > 10 µM | melting point: > 268 °C | IC50 (Huh7): > 25 µM | IC50 (GSK-3αβ): > 10 µM | IC50 (CDK5): 0.13 µM | IC50 (Caco): > 25 µM

Oc1ccc(-c2ncc3ncc(-c4ccco4)cc3n2)cc1 [Compound 35, 2-(4-Hydroxyphenyl)-7-(2-furyl)-pyrido[3,2-d]pyrimidine]
IC50 (PC3): 20 µM | IC50 (NCI): 7 µM | IC50 (HCT 116): 5 µM | IC50 (MDA-MB 231): 4 µM | IC50 (fibroblast): 6 µM | IC50 (DYRK1A): > 10 µM | melting point: 261 to 263 °C | IC50 (Huh7): 15 µM | IC50 (GSK-3αβ): > 10 µM | IC50 (CDK5): 1.8 µM | IC50 (Caco): > 25 µM

Oc1ccc(-c2ncc3ncc(-c4ccsc4)cc3n2)cc1 [Compound 37, 2-(4-Hydroxyphenyl)-7-(3-thiophyl)-pyrido[3,2-d]pyrimidine]
IC50 (PC3): > 25 µM | IC50 (NCI): 10 µM | IC50 (HCT 116): 15 µM | IC50 (MDA-MB 231): > 25 µM | IC50 (fibroblast): > 25 µM | IC50 (DYRK1A): > 10 µM | melting point: 248 to 250 °C | IC50 (Huh7): > 25 µM | IC50 (GSK-3αβ): > 10 µM | IC50 (CDK5): 0.12 µM | IC50 (Caco): > 25 µM

Oc1ccc(-c2ncc3ncc(-c4cccs4)cc3n2)cc1 [Compound 38, 2-(4-Hydroxyphenyl)-7-(2-thiophyl)-pyrido[3,2-d]pyrimidine]
IC50 (PC3): 25 µM | IC50 (NCI): 3 µM | IC50 (HCT 116): 4 µM | IC50 (MDA-MB 231): > 25 µM | IC50 (fibroblast): 2 µM | IC50 (DYRK1A): > 10 µM | melting point: 240 to 242 °C | IC50 (Huh7): > 25 µM | IC50 (GSK-3αβ): > 10 µM | IC50 (CDK5): 0.11 µM | IC50 (Caco): > 25 µM
